Laboratory results published in the NIST ThermoML archive (doi:10.1016/j.jct.2009.06.008).
Values joined by “and” are separate entries in the source; they are usually repeats but may differ in a detail not shown here. Equal values may be shown once. ± gives the expanded uncertainty stated by the source.

Conditions: Crystal, Calculated from knudsen effusion weight loss

Structure (SMILES): O=[N+]([O-])c1ccccc1Br [1-bromo-2-nitrobenzene]
- vapor or sublimation pressure (275.15 K): 9.5e-05 ± 5e-06 kPa and 9.4e-05 ± 5e-06 kPa
- vapor or sublimation pressure (277.15 K): 0.000124 ± 6e-06 kPa and 0.000123 ± 6e-06 kPa
- vapor or sublimation pressure (279.16 K): 0.000164 ± 8e-06 kPa and 0.000165 ± 8e-06 kPa
- vapor or sublimation pressure (281.17 K): 0.00021 ± 1.1e-05 kPa and 0.000212 ± 1.1e-05 kPa and 0.000208 ± 1e-05 kPa
- vapor or sublimation pressure (283.17 K): 0.000279 ± 1.4e-05 kPa and 0.00028 ± 1.4e-05 kPa and 0.000277 ± 1.4e-05 kPa
- vapor or sublimation pressure (285.17 K): 0.000351 ± 1.8e-05 kPa and 0.000353 ± 1.8e-05 kPa and 0.00035 ± 1.8e-05 kPa
- vapor or sublimation pressure (287.21 K): 0.000451 ± 2.3e-05 kPa and 0.000459 ± 2.3e-05 kPa and 0.000448 ± 2.2e-05 kPa
- vapor or sublimation pressure (289.17 K): 0.000581 ± 2.9e-05 kPa and 0.000592 ± 3e-05 kPa and 0.000594 ± 3e-05 kPa
- vapor or sublimation pressure (291.14 K): 0.000733 ± 3.7e-05 kPa and 0.000729 ± 3.7e-05 kPa and 0.000735 ± 3.7e-05 kPa
- vapor or sublimation pressure (293.14 K): 0.000913 ± 4.6e-05 kPa and 0.000939 ± 4.7e-05 kPa and 0.000925 ± 4.6e-05 kPa
- vapor or sublimation pressure (295.16 K): 0.001204 ± 0.00013 kPa and 0.00121 ± 0.00013 kPa and 0.001218 ± 0.00013 kPa

Structure (SMILES): O=[N+]([O-])c1cccc(Br)c1 [1-bromo-3-nitrobenzene]
- vapor or sublimation pressure (279.57 K): 0.000143 ± 7e-06 kPa and 0.000142 ± 7e-06 kPa and 0.000141 ± 7e-06 kPa
- vapor or sublimation pressure (281.21 K): 0.000184 ± 9e-06 kPa and 0.000183 ± 9e-06 kPa and 0.000181 ± 9e-06 kPa
- vapor or sublimation pressure (283.14 K): 0.000238 ± 1.2e-05 kPa and 0.000237 ± 1.2e-05 kPa and 0.000236 ± 1.2e-05 kPa
- vapor or sublimation pressure (285.16 K): 0.000299 ± 1.5e-05 kPa and 0.000294 ± 1.5e-05 kPa and 0.000301 ± 1.5e-05 kPa
- vapor or sublimation pressure (287.19 K): 0.000398 ± 2e-05 kPa and 0.000385 ± 1.9e-05 kPa and 0.000381 ± 1.9e-05 kPa
- vapor or sublimation pressure (289.39 K): 0.000507 ± 2.5e-05 kPa and 0.000506 ± 2.5e-05 kPa and 0.000496 ± 2.5e-05 kPa
- vapor or sublimation pressure (291.16 K): 0.000649 ± 3.3e-05 kPa and 0.00065 ± 3.3e-05 kPa and 0.000635 ± 3.2e-05 kPa
- vapor or sublimation pressure (293.15 K): 0.000817 ± 4.1e-05 kPa and 0.000815 ± 4.1e-05 kPa and 0.00079 ± 4e-05 kPa
- vapor or sublimation pressure (295.17 K): 0.001067 ± 0.00011 kPa and 0.001054 ± 0.00011 kPa and 0.001033 ± 0.0001 kPa

Structure (SMILES): O=[N+]([O-])c1ccc(Br)cc1 [1-bromo-4-nitrobenzene]
- vapor or sublimation pressure (289.15 K): 0.000103 ± 5e-06 kPa and 0.000101 ± 5e-06 kPa and 9.9e-05 ± 5e-06 kPa
- vapor or sublimation pressure (291.12 K): 0.000122 ± 6e-06 kPa and 0.000119 ± 6e-06 kPa and 0.00012 ± 6e-06 kPa
- vapor or sublimation pressure (293.14 K): 0.00017 ± 9e-06 kPa and 0.000165 ± 8e-06 kPa and 0.000161 ± 8e-06 kPa
- vapor or sublimation pressure (295.15 K): 0.000209 ± 1e-05 kPa and 0.000202 ± 1e-05 kPa
- vapor or sublimation pressure (297.14 K): 0.000255 ± 1.3e-05 kPa and 0.000248 ± 1.2e-05 kPa
- vapor or sublimation pressure (299.15 K): 0.000332 ± 1.7e-05 kPa and 0.000337 ± 1.7e-05 kPa and 0.000333 ± 1.7e-05 kPa
- vapor or sublimation pressure (301.13 K): 0.000427 ± 2.1e-05 kPa and 0.00041 ± 2.1e-05 kPa and 0.000409 ± 2e-05 kPa
- vapor or sublimation pressure (303.14 K): 0.000526 ± 2.6e-05 kPa and 0.000537 ± 2.7e-05 kPa and 0.00052 ± 2.6e-05 kPa
- vapor or sublimation pressure (305.14 K): 0.000644 ± 3.2e-05 kPa and 0.000653 ± 3.3e-05 kPa and 0.000624 ± 3.1e-05 kPa
- vapor or sublimation pressure (307.14 K): 0.0008 ± 4e-05 kPa and 0.000809 ± 4.1e-05 kPa and 0.000788 ± 3.9e-05 kPa
- vapor or sublimation pressure (309.15 K): 0.00105 ± 0.00011 kPa and 0.001036 ± 0.0001 kPa and 0.00101 ± 0.0001 kPa
